Assay results reported in patent US9499538B2, “Estrogen receptor modulators and uses thereof” (Seragon Pharmaceuticals, Inc., priority 2012, dated 2016).

Assays:
MCF-7 cells = assay: Breast Cancer Cell Viability Assays (MCF-7, CellTiter-Glo); type: cell-based; settings: 5 days' compound exposure; for IC50: Homo sapiens, MCF7, 120 h
In short: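 Percent viability, background-subtracted against untreated wells, was taken from CellTiter-Glo luminescence after 5 days' exposure of MCF-7 cells. Compounds were tested at eleven semilog concentrations, final 0.3–0.000003 μM, in RPMI containing 10% FBS.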

ER-α in MCF-7 cells = target: T1, ER-α in MCF-7 cells (Homo sapiens, UniProt P03372); assay: Breast Cancer Cell ER-α In Cell Western Assay (SP1); type: cell-based; settings: 4 or 24 hr post compound addition; for Emax: MCF7, SP1 antibody, read-out: ER-α In Cell Western Assay (SP1) Max Response; for DC50: SP1 antibody, read-out: ER-α In Cell Western Assay (SP1) IC50
T1 construct: endogenous in cells; host or cells: MCF-7
T1 sequence (P03372 1-595): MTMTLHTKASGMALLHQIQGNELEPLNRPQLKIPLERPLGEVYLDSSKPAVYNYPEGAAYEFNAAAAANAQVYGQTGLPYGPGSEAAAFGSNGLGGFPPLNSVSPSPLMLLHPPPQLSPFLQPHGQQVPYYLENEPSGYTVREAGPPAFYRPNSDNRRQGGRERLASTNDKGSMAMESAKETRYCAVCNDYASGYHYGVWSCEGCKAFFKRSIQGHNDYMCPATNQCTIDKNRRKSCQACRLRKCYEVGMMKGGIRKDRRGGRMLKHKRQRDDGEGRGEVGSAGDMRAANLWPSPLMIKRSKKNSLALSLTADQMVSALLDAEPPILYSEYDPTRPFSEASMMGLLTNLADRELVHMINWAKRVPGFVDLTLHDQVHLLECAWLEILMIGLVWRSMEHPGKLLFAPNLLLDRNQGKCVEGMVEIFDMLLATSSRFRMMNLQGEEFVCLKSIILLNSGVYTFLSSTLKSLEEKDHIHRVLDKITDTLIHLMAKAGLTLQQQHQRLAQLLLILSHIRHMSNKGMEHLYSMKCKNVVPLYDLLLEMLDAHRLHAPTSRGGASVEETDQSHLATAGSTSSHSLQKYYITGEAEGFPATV
In short: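 ER-α levels quantified by in-cell western: SP1 signal normalised to DRAQ5 DNA stain, relative to untreated cells (% ER). Compounds at 0.3–0.000003 μM final, 11-point semilog series, 4 or 24 h exposure of MCF-7 cells grown in charcoal-stripped serum.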

IC50 (MCF-7 cells) | Emax (ER-α in MCF-7 cells) | DC50 (ER-α in MCF-7 cells) | Structure (SMILES) | MCF7 Viability Assay Max Response (MCF-7 cells)
≤ 100 nM | ≥ 40% | ≤ 100 nM | COc1ccc(/C(=C(\c2ccc(/C=C/C(=O)O)cc2)c2ccc3[nH]nc(F)c3c2)C2CCC2)c(Cl)c1 [Example 67, (E)-3-(4-((E)-2-(2-Chloro-4-methoxyphenyl)-2-cyclobutyl-1-(3-fluoro-1H-indazol-5-yl)vinyl)phenyl)acrylic acid] | ++ (++ = a single % value ≧ 40%)
≤ 100 nM | ≥ 40% | ≤ 100 nM | COc1ccc(/C(=C(\c2ccc(/C=C/C(=O)O)cc2)c2ccc3[nH]nc(F)c3c2)C2CCC2)c(F)c1 [Example 68, (E)-3-(4-((E)-2-Cyclobutyl-1-(3-fluoro-1H-indazol-5-yl)-2-(2-fluoro-4-methoxyphenyl)vinyl)phenyl)acrylic acid] | ++ (++ = a single % value ≧ 40%)
≤ 100 nM | ≥ 40% | ≤ 100 nM | COc1ccc(/C(=C(\c2ccc(/C=C/C(=O)O)cc2)c2ccc3[nH]nc(F)c3c2)C2CCC2)c(C)n1 [Example 69, (E)-3-(4-((E)-2-Cyclobutyl-1-(3-fluoro-1H-indazol-5-yl)-2-(6-methoxy-2-methylpyridin-3-yl)vinyl)phenyl)acrylic acid] | ++ (++ = a single % value ≧ 40%)
≤ 100 nM | ≥ 40% | ≤ 100 nM | CC/C(=C(/c1ccc(/C=C/C(=O)O)cc1)c1ccc2[nH]nc(F)c2c1)c1ccc(OC)nc1C [Example 70, (E)-3-(4-((E)-1-(3-Fluoro-1H-indazol-5-yl)-2-(6-methoxy-2-methylpyridin-3-yl)but-1-en-1-yl)phenyl)acrylic acid] | ++ (++ = a single % value ≧ 40%)
≤ 100 nM | ≥ 40% | ≤ 100 nM | CC/C(=C(/c1ccc(/C=C/C(=O)O)cc1)c1ccc2[nH]nc(F)c2c1)c1cnc(OC)cc1C [Example 71, (E)-3-(4-((E)-1-(3-Fluoro-1H-indazol-5-yl)-2-(6-methoxy-4-methylpyridin-3-yl)but-1-en-1-yl)phenyl)acrylic acid] | ++ (++ = a single % value ≧ 40%)
≤ 100 nM | ≥ 40% | ≤ 100 nM | CSc1ccc(/C(=C(\c2ccc(/C=C/C(=O)O)cc2)c2ccc3[nH]nc(F)c3c2)C2CCC2)c(C)c1 [Example 72, (E)-3-(4-((E)-2-Cyclobutyl-1-(3-fluoro-1H-indazol-5-yl)-2-(2-methyl-4-(methylthio)phenyl)vinyl)phenyl)acrylic acid] | ++ (++ = a single % value ≧ 40%)
≤ 100 nM | ≥ 40% | ≤ 100 nM | CSc1ccc(/C(=C(\c2ccc(/C=C/C(=O)O)cc2)c2ccc3[nH]nc(F)c3c2)C2CCC2)c(Cl)c1 [Example 73, (E)-3-(4-((E)-2-(2-Chloro-4-(methylthio)phenyl)-2-cyclobutyl-1-(3-fluoro-1H-indazol-5-yl)vinyl)phenyl)acrylic acid] | ++ (++ = a single % value ≧ 40%)
≤ 100 nM | ≥ 40% | ≤ 100 nM | N#Cc1cnccc1/C(=C(\c1ccc(/C=C/C(=O)O)cc1)c1ccc2[nH]nc(F)c2c1)C1CCC1 [Example 74, (E)-3-(4-((E)-2-(3-Cyanopyridin-4-yl)-2-cyclobutyl-1-(3-fluoro-1H-indazol-5-yl)vinyl)phenyl)acrylic acid] | ++ (++ = a single % value ≧ 40%)
≤ 100 nM | ≥ 40% | ≤ 100 nM | O=C(O)/C=C/c1ccc(/C(=C(\c2ccc(F)cc2Cl)C2CCC2)c2cc3ccccc3o2)cc1 [Example 75, (E)-3-(4-((E)-1-(Benzofuran-2-yl)-2-(2-chloro-4-fluorophenyl)-2-cyclobutylvinyl)phenyl)acrylic acid] | ++ (++ = a single % value ≧ 40%)
≤ 100 nM | ≥ 40% | ≤ 100 nM | COc1cccc2c(/C(=C(/c3ccc(F)cc3Cl)C3CCC3)c3ccc(/C=C/C(=O)O)cc3)coc12 [Example 76, (E)-3-(4-((E)-2-(2-Chloro-4-fluorophenyl)-2-cyclobutyl-1-(7-methoxybenzofuran-3-yl)vinyl)phenyl)acrylic acid] | ++ (++ = a single % value ≧ 40%)
≤ 100 nM | ≥ 40% | ≤ 100 nM | O=C(O)/C=C/c1ccc(/C(=C(\c2ccncc2Cl)C2CCC2)c2cc3ccccc3o2)cc1 [Example 77, (E)-3-(4-((E)-1-(Benzofuran-2-yl)-2-(3-chloropyridin-4-yl)-2-cyclobutylvinyl)phenyl)acrylic acid] | ++ (++ = a single % value ≧ 40%)
≤ 100 nM | ≥ 40% | ≤ 100 nM | COc1cccc2c(/C(=C(/c3ccncc3Cl)C3CCC3)c3ccc(/C=C/C(=O)O)cc3)coc12 [Example 78, (E)-3-(4-((E)-2-(3-Chloropyridin-4-yl)-2-cyclobutyl-1-(7-methoxybenzofuran-3-yl)vinyl)phenyl)acrylic acid] | ++ (++ = a single % value ≧ 40%)
≤ 100 nM | ≥ 40% | ≤ 100 nM | O=C(O)/C=C/c1ccc(/C(=C(\c2ccc(F)cc2Cl)C2CCC2)c2ccc3[nH]nnc3c2)cc1 [Example 79, (E)-3-(4-((E)-1-(1H-Benzo[d][1,2,3]triazol-5-yl)-2-(2-chloro-4-fluoro-phenyl)-2-cyclobutylvinyl)phenyl)acrylic acid] | ++ (++ = a single % value ≧ 40%)
≤ 100 nM | ≥ 40% | ≤ 100 nM | O=C(O)/C=C/c1ccc(/C(=C(\c2ccc(F)cc2Cl)C2CCC2)c2cccc3[nH]ncc23)cc1 [Example 80, (E)-3-(4-((E)-2-(2-Chloro-4-fluorophenyl)-2-cyclobutyl-1-(1H-indazol-4-yl)vinyl)phenyl)acrylic acid] | ++ (++ = a single % value ≧ 40%)
≤ 100 nM | ≥ 40% | ≤ 100 nM | COc1cc(/C(=C(\c2ccc(/C=C/C(=O)O)cc2)c2ccc3[nH]nc(F)c3c2)C2CCC2)ccn1 [Example 81, (E)-3-(4-((E)-2-Cyclobutyl-1-(3-fluoro-1H-indazol-5-yl)-2-(2-methoxypyridin-4-yl)vinyl)phenyl)acrylic acid] | ++ (++ = a single % value ≧ 40%)
≤ 100 nM | ≥ 40% | ≤ 100 nM | N#Cc1cscc1/C(=C(\c1ccc(/C=C/C(=O)O)cc1)c1ccc2[nH]nc(F)c2c1)C1CCC1 [Example 82, (E)-3-(4-((E)-2-(4-Cyanothiophen-3-yl)-2-cyclobutyl-1-(3-fluoro-1H-indazol-5-yl)vinyl)phenyl)acrylic acid] | ++ (++ = a single % value ≧ 40%)
≤ 100 nM | ≥ 40% | ≤ 100 nM | Cc1cnccc1/C(=C(\c1ccc(/C=C/C(=O)O)cc1)c1ccc2scnc2c1)C1CCC1 [Example 83, (E)-3-(4-((E)-1-(Benzo[d]thiazol-5-yl)-2-cyclobutyl-2-(3-methylpyridin-4-yl)vinyl)phenyl)acrylic acid] | ++ (++ = a single % value ≧ 40%)
≤ 100 nM | ≥ 40% | ≤ 100 nM | O=C(O)/C=C/c1ccc(/C(=C(\c2cccc(-n3cccn3)c2)C2CCC2)c2ccc3[nH]nc(F)c3c2)cc1 [Example 84, (E)-3-(4-((E)-2-(3-(1H-Pyrazol-1-yl)phenyl)-2-cyclobutyl-1-(3-fluoro-1H-indazol-5-yl)vinyl)phenyl)acrylic acid] | ++ (++ = a single % value ≧ 40%)
≤ 100 nM | ≥ 40% | ≤ 100 nM | COc1cc(C)c(/C(=C(\c2ccc(/C=C/C(=O)O)cc2)c2ccc3scnc3c2)C2CCC2)cn1 [Example 85, (E)-3-(4-((E)-1-(Benzo[d]thiazol-5-yl)-2-cyclobutyl-2-(6-methoxy-4-methylpyridin-3-yl)vinyl)phenyl)acrylic acid] | ++ (++ = a single % value ≧ 40%)
≤ 100 nM | ≥ 40% | ≤ 100 nM | Cc1sccc1/C(=C(\c1ccc(/C=C/C(=O)O)cc1)c1ccc2scnc2c1)C1CCC1 [Example 86, (E)-3-(4-((E)-1-(Benzo[d]thiazol-5-yl)-2-cyclobutyl-2-(2-methylthiophen-3-yl)vinyl)phenyl)acrylic acid] | ++ (++ = a single % value ≧ 40%)
